Tests used:
Type in all cases: physicochemical
[1] = Coupling of water and castor oil by hydrotropes
[2] = Coupling of water and octanoic acid by hydrotropes (amount producing a single phase)
Protocol: Hydrotropes were added to a two-component mixture of octanoic acid and deionized (DI) water to find the amount that produced a single phase from the two separate phases of water and octanoic acid.
The percent hydrotrope required to compatibilize phases (and the resulting percent octanoic acid) were calculated and the results are shown in Table 4 as well as FIG. 1.

[3] = Coupling of water and soy methyl ester by hydrotropes
Protocol: Hydrotropes were added to a two-component mixture of soy methyl ester and DI water to find the amount that produced a single phase from the two separate phases of water and soy methyl ester. The percent hydrotrope required to compatibilize the phases was calculated.

[4] = ratio of water to castor oil 10:90
[5] = ratio of water to castor oil 30:70
[6] = ratio of water to castor oil 50:50
[7] = ratio of water to castor oil 70:30
[8] = ratio of water to castor oil 90:10
[9] = ratio of water:octanoic acid 10:90
[10] = ratio of water:octanoic acid 30:70
[11] = ratio of water:octanoic acid 50:50
[12] = ratio of water:octanoic acid 70:30
[13] = ratio of water:octanoic acid 90:10
[14] = water:octanoic acid 10:90 (DI water 0.5 g, octanoic acid 4.5 g)
[15] = water:octanoic acid 30:70 (DI water 1.5 g, octanoic acid 3.5 g)
[16] = water:octanoic acid 50:50 (DI water 5.0 g, octanoic acid 5.0 g)
[17] = water:octanoic acid 70:30 (DI water 3.5 g, octanoic acid 1.5 g)
[18] = water:octanoic acid 90:10 (DI water 4.5 g, octanoic acid 0.5 g)
[19] = ratio of water:soy methyl esters 10:90
[20] = ratio of water:soy methyl esters 30:70
[21] = ratio of water:soy methyl esters 50:50
[22] = ratio of water:soy methyl esters 70:30
[23] = ratio of water:soy methyl esters 90:10

SMILES | Wt % Castor oil (at compatibilization) [1, 4] | Wt % Hydrotrope required to compatibilize phases [1, 4] | Wt % Castor oil (at compatibilization) [1, 5] | Wt % Hydrotrope required to compatibilize phases [1, 5] | Wt % Castor oil (at compatibilization) [1, 6] | Wt % Hydrotrope required to compatibilize phases [1, 6] | Wt % Castor oil (at compatibilization) [1, 7] | Wt % Hydrotrope required to compatibilize phases [1, 7] | Wt % Castor oil (at compatibilization) [1, 8] | Wt % Hydrotrope required to compatibilize phases [1, 8] | Wt % Hydrotrope required to compatibilize phases [2, 9] | Wt % Octanoic Acid (resulting, at compatibilization) [2, 9] | Wt % Hydrotrope required to compatibilize phases [2, 10] | Wt % Octanoic Acid (resulting, at compatibilization) [2, 10] | Wt % Hydrotrope required to compatibilize phases [2, 11] | Wt % Octanoic Acid (resulting, at compatibilization) [2, 11] | Wt % Hydrotrope required to compatibilize phases [2, 12] | Wt % Octanoic Acid (resulting, at compatibilization) [2, 12] | Wt % Hydrotrope required to compatibilize phases [2, 13] | Wt % Octanoic Acid (resulting, at compatibilization) [2, 13] | other results
COC(C)COC(C)CO (stereo not drawn) [DPM, dipropylene glycol methyl ether] | 40% | 56% | 26% | 65% | 13% | 74% | 5% | 79% | 2% | 81% | 30% | 63% | 47% | 37% | 51% | 25% | 48% | 16% | 43% | 6% | Amount of hydrotrope that produced a single phase [2, 14]: 2.14 grams; Amount of hydrotrope that produced a single phase [2, 15]: 4.52 grams; Amount of hydrotrope that produced a single phase [2, 16]: 10.34 grams; Amount of hydrotrope that produced a single phase [2, 17]: 4.66 grams; Amount of hydrotrope that produced a single phase [2, 18]: 3.7 grams; Wt % Hydrotrope required to compatibilize the phases [3, 19]: 48%; Wt % Soy Methyl Esters (at compatibilization) [3, 19]: 47%; Wt % Hydrotrope required to compatibilize the phases [3, 20]: 63%; Wt % Soy Methyl Esters (at compatibilization) [3, 20]: 28%; Wt % Hydrotrope required to compatibilize the phases [3, 21]: 74%; Wt % Soy Methyl Esters (at compatibilization) [3, 21]: 13%; Wt % Hydrotrope required to compatibilize the phases [3, 22]: 78%; Wt % Soy Methyl Esters (at compatibilization) [3, 22]: 5%; Wt % Hydrotrope required to compatibilize the phases [3, 23]: 78%; Wt % Soy Methyl Esters (at compatibilization) [3, 23]: 2%
COCC(C)O (stereo not drawn) [PM, propylene glycol methyl ether] | 36% | 61% | 26% | 65% | 12% | 76% | 5% | 81% | 2% | 83% | 18% | 74% | 38% | 43% | 42% | 29% | 42% | 17% | 41% | 6% | Amount of hydrotrope that produced a single phase [2, 14]: 1.09 grams; Amount of hydrotrope that produced a single phase [2, 15]: 3.12 grams; Amount of hydrotrope that produced a single phase [2, 16]: 3.62 grams; Amount of hydrotrope that produced a single phase [2, 17]: 3.68 grams; Amount of hydrotrope that produced a single phase [2, 18]: 3.44 grams; Wt % Hydrotrope required to compatibilize the phases [3, 19]: 51%; Wt % Soy Methyl Esters (at compatibilization) [3, 19]: 44%; Wt % Hydrotrope required to compatibilize the phases [3, 20]: 67%; Wt % Soy Methyl Esters (at compatibilization) [3, 20]: 25%; Wt % Hydrotrope required to compatibilize the phases [3, 21]: 77%; Wt % Soy Methyl Esters (at compatibilization) [3, 21]: 11%; Wt % Hydrotrope required to compatibilize the phases [3, 22]: 81%; Wt % Soy Methyl Esters (at compatibilization) [3, 22]: 5%; Wt % Hydrotrope required to compatibilize the phases [3, 23]: 77%; Wt % Soy Methyl Esters (at compatibilization) [3, 23]: 2%
CCO [ethanol] | 40% | 55% | 22% | 69% | 10% | 79% | 5% | 82% | 2% | 84% | 18% | 74% | 37% | 44% | 39% | 31% | 37% | 19% | 36% | 6% | Amount of hydrotrope that produced a single phase [2, 14]: 1.12 grams; Amount of hydrotrope that produced a single phase [2, 15]: 2.95 grams; Amount of hydrotrope that produced a single phase [2, 16]: 3.14 grams; Amount of hydrotrope that produced a single phase [2, 17]: 2.97 grams; Amount of hydrotrope that produced a single phase [2, 18]: 2.87 grams; Wt % Hydrotrope required to compatibilize the phases [3, 19]: 54%; Wt % Soy Methyl Esters (at compatibilization) [3, 19]: 41%; Wt % Hydrotrope required to compatibilize the phases [3, 20]: 74%; Wt % Soy Methyl Esters (at compatibilization) [3, 20]: 18%; Wt % Hydrotrope required to compatibilize the phases [3, 21]: 78%; Wt % Soy Methyl Esters (at compatibilization) [3, 21]: 11%; Wt % Hydrotrope required to compatibilize the phases [3, 22]: 80%; Wt % Soy Methyl Esters (at compatibilization) [3, 22]: 6%; Wt % Hydrotrope required to compatibilize the phases [3, 23]: 77%; Wt % Soy Methyl Esters (at compatibilization) [3, 23]: 2%

From patent US9458414B2, “Cleaning, surfactant, and personal care compositions” (SEGETIS, INC., priority 2012, dated 2016)
